{"source": "patent US7776873B2", "about": "“Method for treating damage to gastric mucosa” (Yuhan Corporation, priority 2005, dated 2010)", "key": {"[1]": {"tested_on": "NF-kB (nuclear factor-kappa B)", "assay": "DNA binding activity of NF-kB after H. pylori infection (EMSA)", "format": "cell-based, human", "details": "FIG. 5", "description": "The DNA binding activity of NF-kB (nuclear factor-kappa B), a redox-sensitive transcription factor known to be associated with H. pylori infection was evaluated using EMSA. Rebamipide (50 μM), known to have cytoprotective properties, was used as a control drug, and revaprazan (25 μM) was used as a test drug. The human gastric epithelial (AGS, KCLB 21739) cells were seeded in culture dishes at 2×10^6 cells/100 mm^2 and cultured in RPMI 1640 (Gibco BRL, Grand Island, N.Y., U.S.A.), supplemented with 100 units/mL penicillin, 100 ug/mL streptomycin, and 10% FBS (Fetal Bovine Serum). […] The culture media were removed and the cells were twice washed with PBS (137 mM NaCl, 2.7 mM KCl, 10 mM Na2HPO4, and 2 mM KH2PO4). For inoculation, H. pylori (ATCC 43504) cultures were resuspended in PBS and cocultured with AGS cells at a final concentration of 5×10^8 CFU/ml at 37° C. for one hour. The nuclear fractions for EMSA were prepared using the NE-PER Nuclear and the Cytoplasmic Extraction Kit (Pierce, Rockford, Ill., U.S.A.). Sequences of double-stranded oligonucleotides used for EMSA of NF-kB were as follows; [NT], and the oligonucleotides were labeled with a Biotin 3' End DNA Labeling Kit (Pierce, Rockford, Ill., U.S.A.). The EMSA was performed with a Light Shift Chemiluminescent EMSA Kit (Pierce, Rockford, Ill., U.S.A.)."}, "[2]": {"tested_on": "rat gastric mucosal (RGM-1) cells", "assay": "Incidence of ethanol-induced cell death (MTT assay-2)", "format": "cell-based", "details": "FIG. 2", "procedure": "The rat gastric mucosal (RGM-1, RIKEN cell bank, Japan) cells were seeded onto 96-well plate at 5×10^4 cells/ml and cultured in DMEM-F12 (Gibco BRL, Grand Island, N.Y., U.S.A.), supplemented with 100 units/mL penicillin, 100 ug/mL streptomycin, and 10% FBS (Fetal Bovine Serum). […] To remove DMEM-F12 media, the plate was centrifuged at 24° C., 3000 rpm for 5 minutes and washed three times with PBS (137 mM NaCl, 2.7 mM KCl, 10 mM Na2HPO4, and 2 mM KH2PO4). Then, ethanol-containing media (200 mM ethanol-containing DMEM-F12, supplemented with 100 units/mL penicillin, 100 ug/mL streptomycin, and 10% FBS) was added to the cells, and the cells were cultured at 37° C. for 16 hours. After the incubation, the culture was centrifuged at 24° C., 3000 rpm for 5 minutes to remove the culture medium and then total viable cell numbers were assessed by MTT (3-[4,5-dimethylthiazol-2-yl]-2,5-diphenyl tetrazolim bromide) assay method. 1 mg/ml of an MTT solution prepared by dissolving MTT (Amresco, Ohio, U.S.A.) in PBS (137 mM NaCl, 2.7 mM KCl, 10 mM Na2HPO4, and 2 mM KH2PO4) was added to each well (50 μl/well), followed by incubation at 37° C. for 4 hours. The supernatant was then removed by centrifugation at 24° C., 3000 rpm for 5 minutes and the formazan grains formed by the viable cells were dissolved in 99.5% dimethylsulfoxide (DMSO) (Kanto, Tokyo, Japan) (50 μl/well), and the optical intensity was measured at 540 nm using an ELISA reader (TECAN, Maennedorf, Switzerland)."}, "interleukin-8 (IL-8)": {"tested_on": "interleukin-8 (IL-8)", "assay": "Expression level of IL-8 in sulindac-treated cells (RT-PCR)", "format": "cell-based, rat", "details": "RGM-1 cells, revaprazan 25 uM (rebamipide 50 uM) 16 hours, then sulindac 100 uM 8 hours, FIG. 6", "description": "(§1) In order to evaluate cytoprotective effect of revaprazan, 100 μM of sulindac belonging to NSAIDs was added to the rat cells, and the expression levels of pro-angiogenic growth factors, VEGF (Vascular Endothelial Growth Factor), interleukin-8 (IL-8), and COX-2 (cyclooxygenase-2) were measured. Rebamipide (50 μM), known to have cytoprotective properties, was used as a control drug and revaprazan (25 μM) was used as a test drug. The rat gastric mucosal (RGM-1, RIKEN cell bank, Japan) cells were seeded in culture dishes at 2×10^6 cells/100 mm^2 and cultured in RPMI 1640 (Gibco BRL, Grand Island, N.Y., U.S.A.), supplemented with 100 units/mL penicillin, 100 ug/mL streptomycin, and 10% FBS (Fetal Bovine Serum). […] The culture media were removed and the cells were washed three times with PBS (137 mM NaCl, 2.7 mM KCl, 10 mM Na2HPO4, and 2 mM KH2PO4). A solution of sulindac in DMSO was added to the cells to reach a final concentration of 100 uM and the cells were cultured at 37° C. for 8 hours. The cultured cells were collected by centrifugation at 23° C. at 3000 rpm for 3 minutes, and the total RNA was isolated from the cells using the TRIzol reagent (Life technologies, Milan, Italy). Sterilized RNase-free water was added to 2 μg of the total RNA and 1 μl of 10 pmol/λ oligo dT to obtain reaction solutions with a volume of 34 μl. […]"}, "COX-2 (cyclooxygenase-2)": {"tested_on": "COX-2 (cyclooxygenase-2)", "assay": "Expression level of COX-2 in sulindac-treated cells (RT-PCR)", "format": "cell-based, rat", "details": "RGM-1 cells, revaprazan 25 uM (rebamipide 50 uM) 16 hours, then sulindac 100 uM 8 hours, FIG. 6", "description": "as §1"}, "[3]": {"tested_on": "VEGF (Vascular Endothelial Growth Factor)", "assay": "Expression level of VEGF in sulindac-treated cells (RT-PCR)", "format": "cell-based, rat", "details": "RGM-1 cells, revaprazan 25 uM (rebamipide 50 uM) 16 hours, then sulindac 100 uM 8 hours, FIG. 6", "description": "as §1"}}, "data": [{"smiles": "Cc1nc(Nc2ccc(F)cc2)nc(N2CCc3ccccc3C2C)c1C", "note": "(stereo not shown) [revaprazan, 5,6-dimethyl-2-(4-fluorophenylamino)-4-(1-methyl-1,2,3,4-tetrahydroisoquinolin-2-yl)pyrimidine]", "values": [{"measurement": "NF-kB activity (DNA binding)", "setting": "[1]; AGS cells, 25 uM pretreatment for 16 hours, then H. pylori one hour", "value": "significantly inhibited"}, {"measurement": "cytoprotective effect (NF-kB inhibition) compared with rebamipide", "setting": "[1]; revaprazan 25 uM vs rebamipide 50 uM", "value": "equal to or greater than rebamipide"}, {"measurement": "cytoprotective effect against ethanol-induced cytotoxicity compared with rebamipide", "setting": "[2]; 50 uM each", "value": "equal to or greater than rebamipide"}, {"measurement": "ethanol-induced gastric mucosal cytotoxicity", "setting": "[2]; 50 uM pretreatment for 16 hours, then 200 mM ethanol for 16 hours", "value": "significantly reduced"}, {"measurement": "expression level of IL-8 versus rebamipide-sulindac treatment group", "setting": "interleukin-8 (IL-8)", "value": "much higher"}, {"measurement": "expression level of COX-2 versus rebamipide-sulindac treatment group", "setting": "COX-2 (cyclooxygenase-2)", "value": "much higher"}, {"measurement": "expression level of VEGF versus rebamipide-sulindac treatment group", "setting": "[3]", "value": "much higher"}]}]}
